“Also recorded” adds a separate entry of the source. Starred links: 1 amine or outer side, 2 acyl side, 3 side chain; linkers in the order of their positions; H or OH if unused. Positions of bridges follow the written chain, without caps; N, C: chain ends. Non-standard residues stand in square brackets, D forms with d. Residues, ends and D or L forms follow the SMILES beside them. Chains are numbered I, II in the order given. NH(CH2CH2O)6CH2CO = O=C(COCCOCCOCCOCCOCCOCCN[*:1])[*:2]; Dap = NC[C@H](N)C(=O)O
Columns and labels:
[1] = target: TrkB (Homo sapiens, UniProt Q16620); details: Non-Patent Document 3; cited from earlier work
[2] = target: T1, mouse TrkB (Mus musculus, UniProt P15209); assay: Western blot of phosphorylated Trk in primary mouse hippocampal neurons; type: cell-based
T1 construct: induce phosphorylation of mouse TrkB in primary mouse hippocampal neurons; endogenous in cells; host or cells: primary mouse hippocampal neurons (DIV6)
Procedure: (§1) After washing with 0.1 M PBS twice, cells were lysed in a radio-immunoprecipitation assay (RIPA) buffer containing 50 mM Tris-HCI (pH 7.4), 150 mM NaCl, 2 mM EDTA, 1% Nonidet P-40, 0.5% Na-deoxycholate, 0.1% SDS, 50 mM NaF, 0.2 mM Na3VO4, 10 µg/mL aprotinin, 10 µg/mL leupeptin, and 1 mM phenylmethylsulfonyl fluoride on ice for 30 minutes. After ultrasonic treatment and centrifugation at 20,000 ×g for 30 minutes, the supernatant was subjected to SDS-PAGE. Protein amount was quantified using Bicinchoninic Acid Kit (BCA-1, Sigma).
The cell lysate (protein amount: 20 µg in P-TrkB, 10 µg in TrkB, and 5 µg in Akt and Erk) was separated using 8% polyacrylamide gel and transferred to a polyvinylidene difluoride membrane (Merck Millipore, Massachusetts, USA). The resulting membrane was blocked for 1 hour with a blocking buffer (5% bovine serum albumin (BSA) tris-buffered physiological saline (TBST) containing 0.05% tween-20), followed by incubation overnight at 4° C. in a blocking buffer containing a primary antibody (rabbit anti-TrkB antibody, 1:1,000 dilution, Cat#4603; rabbit anti-phosphorylated Trk antibody, 1:1,000 dilution, Cat#9141; mouse anti-pan-Akt antibody, 1:2,000 dilution, Cat#2920; rabbit anti-phosphorylated Akt (S473) antibody, 1:2,000 dilution, Cat#4060; rabbit anti-Erk½ antibody, 1:2,000 dilution, Cat#4695; mouse anti-phosphorylated Erk½ antibody, 1:2,000 dilution, Cat#9106 (Cell Signaling Technology)). After washing with TBST for 10 minutes four times, the membrane was incubated with a secondary antibody (peroxidase-conjugated goat anti-rabbit IgG antibody, 1:10,000 dilution, Cat#111-035-003 (Jackson Immuno Research); peroxidase-conjugated sheep anti-mouse IgG antibody, 1:10,000 dilution, Cat#NA9310 (GE Healthcare)) for one hour at room temperature.
Finally, after the resulting membrane was washed with TBST, an immune-positive bands were detected by a chemiluminescence method using a Luminata Crescendo HPR substrate (Merck Millipore). The relative phosphorylation level of each kinase was calculated as a ratio of phosphorylated kinase/all kinases. […]

[3] = system: 40 RTKs (receptor tyrosine kinases); assay: Phospho-RTK array evaluation (off-target activity); type: cell-based, mouse; details: primary hippocampal neurons (DIV6)
Procedure: Comprehensive study of the phosphorylated tyrosine kinase receptor was conducted using a phospho-RTK array in accordance with the manufacturer’s protocol (Proteome Profiler mouse Phospho-RTK Array Kit, ARY014, R&D Systems). The phosphorylation level was evaluated by pixel density and quantified by Image J Software.

[4] = system: primary hippocampal neurons; assay: Immunocytochemistry for evaluation of axonal outgrowth; type: cell-based; details: for axonal outgrowth: p<0.01 vs DMSO
Procedure: The cells were washed twice with 0.1 M phosphate-buffered physiological saline (PBS) and immobilized for 15 minutes with 2% paraformaldehyde (PFA)/4% sucrose (in 0.1 M PBS). After washing three times with PBS, the cells were subjected to permeabilization for 3 minutes with PBS (P\BST) containing 0.2% Triton-X and incubated for one hour with a blocking solution (PBST containing 5% normal goat serum) to prevent non-specific binding. Then, the cells were incubated overnight at 4° C. with a primary antibody diluted with the blocking solution (rabbit anti-Tau polyclonal antibody, 1:1,000 dilution; cat#ab64193 (abcam); mouse anti-MAP2 monoclonal antibody, 1:1,000 dilution, M4403 (Sigma)). After washing of the cells with PBST for 10 minutes was performed four times, they were incubated at room temperature for 2 hours with a fluorescently-labeled secondary antibody diluted with the block solution (Alexa Fluor 488-labeled goat anti-mouse IgG antibody, 1:1,000 dilution, A-11029; Alexa Fluor 568-labeled goat anti-rabbit IgG antibody, 1:1,000 dilution, A-21069 (Thermo Fisher Scientific)).
Next, after washing of the cells with PBST for 10 minutes was performed four times, they were mounted with […] containing DAPI (H-1200 (Vector Laboratories)) and an image was obtained using a Virtual Slide microscope system (VS120 (Olympus)) having a x20 objective lens. The images were analyzed using a neuron J plugin in Image J software and the neurite length tracing and quantification were performed (Meijering, E.; Jacob, M.; Sarria, J. C.; Steiner, P.; Hirling, H.; Unser, M., Design and validation of a tool for neurite tracing and analysis in fluorescence microscopy images. Cytometry A 2004, 58 (2), 167-76.).

[5] = system: Akt; assay: Western blot of phosphorylated Akt (S473) in primary hippocampal neurons; type: cell-based, mouse; details: 1 nM, 15 minutes, primary hippocampal neurons (DIV6); p<0.01 vs DMSO
Procedure: as §1
(§2) The cell lysate (protein amount: 20 µg in P-TrkB, 10 µg in TrkB, and 5 µg in Akt and Erk) was separated using 8% polyacrylamide gel and transferred to a polyvinylidene difluoride membrane (Merck Millipore, Massachusetts, USA). […]
(§3) Finally, after the resulting membrane was washed with TBST, an immune-positive bands were detected by a chemiluminescence method using a Luminata Crescendo HPR substrate (Merck Millipore). The relative phosphorylation level of each kinase was calculated as a ratio of phosphorylated kinase/all kinases.

[6] = system: c-fos; assay: qRT-PCR of c-fos mRNA in primary cortical neurons; type: cell-based; details: 1 nM, one hour, primary cortical neurons (DIV6); p<0.01
Procedure: (§4) The total RNA was quantitatively and qualitatively verified by a NanoDrop spectrometer (Thermo Fisher Scientific) and electrophoresis in a formaldehyde gel.
(§5) Next, 500 ng of the total RNA was reverse-transcribed using Super Script II (Thermo Fisher Scientific). Quantitative PCR was carried out using a SYBR Green real-time PCR system by the previously reported method (Akashi, M.; Takumi, T., The orphan nuclear receptor RORalpha regulates circadian transcription of the mammalian core-clock Bmal1. Nat Struct Mol Biol 2005, 12 (5), 441-8.). A Gapdh gene was used as an internal control. The following primer sequences were respectively used: Gapdh (Forward: 5′-[…]-3′ and reverse: 5′-[…]-3′) (represented by SEQ ID NOS: 14 and 15, respectively), c-fos (Forward: 5′-[…]-3′ and reverse: 5′-[…]-3′) (represented by SEQ ID NOS: 16 and 17, respectively), and Arc (Forward: 5′-[…]-3′ and reverse: 5′-[…]-3′)(represented by SEQ ID NOS: 18 and 19, respectively).

[7] = target: extracellular domain of hTrkA (Homo sapiens, UniProt P04629); assay: SPR binding kinetics (Biacore T200), hTrkA; design: the extracellular domain of hTrkA, hTrkC, and hTrkB; details: 1:1 binding model
Procedure: (§6) With respect to the binding kinetics (binding affinity (dissociation constant) KD) of the cyclic peptides towards the extracellular domain of hTrkA, hTrkC, and hTrkB (which will hereinafter be called “hTrkA-C proteins”, collectively) immobilized on a sensor chip via a His6-tag, quantitative measurements making use of surface plasmon resonance (SPR) were carried out to evaluate the binding intensity and selectivity of the cyclic peptide to hTrkB, compared with that to hTrkA and hTrkC.
(§7) The binding kinetics of each peptide towards the hTrkA-C proteins were determined using Biacore T200 (GE Healthcare). The buffer used was HBS-P+ (10 mM HEPES, 150 mM NaCl, and 0.05 vol% surfactant P20, pH 7.4) containing 0.1 vol% DMSO and 1 mM b-dodecyl-maltoside. 100 nM hTrkA-C proteins were immobilized on a Ni^2+ treated NTA chip in accordance with the manufacturer’s instructions (baseline response 1000 to 3000 refraction units). Peptides were injected as an analyte at a flow rate of […] and binding kinetics was modelled using a 1:1 binding model.

[8] = system: Erk½; assay: Western blot of phosphorylated Erk½ in primary hippocampal neurons; type: cell-based, mouse; details: 1 nM, 15 minutes, primary hippocampal neurons (DIV6); p<0.01 vs DMSO
Procedure: as §1, §2, §3

[9] = system: Arc; assay: qRT-PCR of Arc mRNA in primary cortical neurons; type: cell-based; details: 1 nM, one hour, primary cortical neurons (DIV6); p<0.01
Procedure: as §4, §5

[10] = target: T2, extracellular domain of hTrkC (Homo sapiens, UniProt Q16288); assay: SPR binding kinetics (Biacore T200), hTrkC; details: 1:1 binding model
T2 construct: the extracellular domain of hTrkA, hTrkC, and hTrkB
Procedure: as §6, §7

[11] = target: T3, extracellular domain of hTrkB (Homo sapiens, UniProt Q16620); assay: SPR binding kinetics (Biacore T200), hTrkB; details: Monomer (cyclic peptide), 1:1 binding model, 1 to 1000 nM, read-out: binding affinity KD, TrkB
T3 construct: the extracellular domain of hTrkA, hTrkC, and hTrkB
Procedure: as §6, §7

T1 sequence (P15209 32-821): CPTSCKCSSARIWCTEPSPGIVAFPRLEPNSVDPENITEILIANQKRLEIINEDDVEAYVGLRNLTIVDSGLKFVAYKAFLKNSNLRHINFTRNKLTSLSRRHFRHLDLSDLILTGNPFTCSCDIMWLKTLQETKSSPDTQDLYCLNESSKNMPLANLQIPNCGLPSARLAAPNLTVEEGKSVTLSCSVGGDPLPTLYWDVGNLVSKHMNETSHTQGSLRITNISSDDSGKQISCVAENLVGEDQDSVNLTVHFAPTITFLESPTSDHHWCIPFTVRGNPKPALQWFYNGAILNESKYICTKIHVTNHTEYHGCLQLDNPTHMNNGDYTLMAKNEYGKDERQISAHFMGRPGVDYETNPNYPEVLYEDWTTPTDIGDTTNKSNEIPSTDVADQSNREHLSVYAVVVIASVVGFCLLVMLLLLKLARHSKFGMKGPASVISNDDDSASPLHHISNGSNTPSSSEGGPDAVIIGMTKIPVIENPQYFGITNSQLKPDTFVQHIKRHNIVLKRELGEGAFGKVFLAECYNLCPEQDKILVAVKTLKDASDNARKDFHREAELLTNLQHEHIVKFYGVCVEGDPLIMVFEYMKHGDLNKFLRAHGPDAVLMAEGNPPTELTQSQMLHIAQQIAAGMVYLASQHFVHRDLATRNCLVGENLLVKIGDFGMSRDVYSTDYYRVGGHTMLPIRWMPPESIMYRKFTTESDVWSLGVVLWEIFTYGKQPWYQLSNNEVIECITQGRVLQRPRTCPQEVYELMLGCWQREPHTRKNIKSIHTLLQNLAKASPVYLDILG
T2 sequence (Q16288 32-429 limits assumed): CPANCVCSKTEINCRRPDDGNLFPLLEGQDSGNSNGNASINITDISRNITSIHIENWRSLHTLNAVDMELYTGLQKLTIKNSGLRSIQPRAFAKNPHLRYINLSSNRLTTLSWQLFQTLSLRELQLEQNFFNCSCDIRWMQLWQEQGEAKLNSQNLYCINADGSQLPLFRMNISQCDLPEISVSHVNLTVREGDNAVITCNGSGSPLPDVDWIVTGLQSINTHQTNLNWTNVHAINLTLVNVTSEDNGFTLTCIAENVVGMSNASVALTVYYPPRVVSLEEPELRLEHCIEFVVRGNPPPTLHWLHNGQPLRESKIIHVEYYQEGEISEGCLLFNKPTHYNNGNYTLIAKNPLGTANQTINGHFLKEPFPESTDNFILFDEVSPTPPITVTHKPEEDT
Chain of TrkB (Q16620 32-822, species assumed): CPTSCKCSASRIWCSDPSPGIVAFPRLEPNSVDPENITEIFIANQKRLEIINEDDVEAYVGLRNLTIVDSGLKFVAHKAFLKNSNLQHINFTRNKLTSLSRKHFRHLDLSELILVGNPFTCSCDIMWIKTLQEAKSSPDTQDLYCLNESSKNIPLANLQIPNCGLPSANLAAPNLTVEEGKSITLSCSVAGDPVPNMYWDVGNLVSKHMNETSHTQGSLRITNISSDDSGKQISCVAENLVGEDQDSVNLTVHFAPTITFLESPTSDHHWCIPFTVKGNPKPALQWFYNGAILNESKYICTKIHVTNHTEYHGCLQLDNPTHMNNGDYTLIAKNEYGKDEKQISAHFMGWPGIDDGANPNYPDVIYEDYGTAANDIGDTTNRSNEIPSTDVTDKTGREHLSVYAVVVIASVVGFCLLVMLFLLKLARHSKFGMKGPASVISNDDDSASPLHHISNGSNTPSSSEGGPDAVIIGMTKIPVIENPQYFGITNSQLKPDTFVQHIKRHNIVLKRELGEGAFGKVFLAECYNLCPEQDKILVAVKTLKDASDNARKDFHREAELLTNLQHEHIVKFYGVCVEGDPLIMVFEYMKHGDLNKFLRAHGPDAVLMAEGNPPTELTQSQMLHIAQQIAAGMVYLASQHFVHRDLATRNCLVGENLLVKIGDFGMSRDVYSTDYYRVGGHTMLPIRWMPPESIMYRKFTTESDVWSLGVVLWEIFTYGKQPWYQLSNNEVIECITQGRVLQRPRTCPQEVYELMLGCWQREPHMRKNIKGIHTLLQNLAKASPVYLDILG

Compound: BDNF: brain-derived neurotrophic factor, natural protein agonist of TrkB, positive control
- affinity for TrkB relative to that of p75 [1]: at least 10 times
- phosphorylation of Trk ([2]; 0.1 nM, 15 minutes, primary mouse hippocampal neurons (DIV6)): induced phosphorylation of Trk
- RTK phosphorylation in phospho-RTK array ([3]; 0.1 nM, incubation for one hour as printed): caused phosphorylation of TrkB
- axonal length of primary neurons ([4]; 2 nM BDNF, DIV0 to 3): elongated

Compound: CC(C)C[C@@H]1NC(=O)[C@H](Cc2ccc(O)cc2)NC(=O)CSC[C@@H](C(=O)NCC(=O)N[C@@H](CO)C(=O)NCC(=O)N[C@@H](CO)C(=O)NCC(=O)N[C@@H](CO)C(=O)NCCOCCOCCOCCOCCOCCOCC(=O)NC[C@H](NC(=O)COCCOCCOCCOCCOCCOCCNC(=O)[C@H](CO)NC(=O)CNC(=O)[C@H](CO)NC(=O)CNC(=O)[C@H](CO)NC(=O)CNC(=O)[C@@H]2CSCC(=O)N[C@@H](Cc3ccc(O)cc3)C(=O)N[C@@H](CC(C)C)C(=O)N[C@@H](CCCNC(=N)N)C(=O)N3CCC[C@H]3C(=O)N[C@@H](CCCNC(=N)N)C(=O)N[C@@H](Cc3ccc(O)cc3)C(=O)N[C@@H](CCCCN)C(=O)N[C@@H](Cc3ccccc3)C(=O)N[C@@H](Cc3c[nH]c4ccccc34)C(=O)N2)C(N)=O)NC(=O)[C@H](Cc2c[nH]c3ccccc23)NC(=O)[C@H](Cc2ccccc2)NC(=O)[C@H](CCCCN)NC(=O)[C@H](Cc2ccc(O)cc2)NC(=O)[C@H](CCCNC(=N)N)NC(=O)[C@@H]2CCCN2C(=O)[C@H](CCCNC(=N)N)NC1=O [DiTrbL3] (I: {CH2CO}-YLRPRYKFWCGSGSGS[NH(CH2CH2O)6CH2CO][Dap]-NH2 / II: {CH2CO}-YLRPRYKFWCGSGSGS[NH(CH2CH2O)6CH2CO]; amide I:18-II:C; thioether I:N-I:10, II:N-II:10)
- TrkB phosphorylation, dose titration ([2]; 0.2 nM, p<0.01 vs DMSO): obviously induces TrkB phosphorylation
- phosphorylation of TrkB ([2]; 1 nM, 15 minutes, primary mouse hippocampal neurons (DIV6)): induced phosphorylation of TrkB
- phosphorylation of Akt [5]: drastically activated phosphorylation; also recorded: a significant difference is present in induction between DMSO and DiTrbL3
- mRNA expression of c-fos [6]: significantly increased
- RTK phosphorylation in phospho-RTK array ([3]; 1 nM, 40 RTKs): phosphorylated only TrkB
- axonal outgrowth ([4]; 10 nM, DIV0 to 3): significantly reinforced the axonal outgrowth
- axonal outgrowth ([4]; 100 nM, DIV0 to 3): significantly reinforced the axonal outgrowth
- axonal length of primary neurons ([4]; treated for 3 days (DIV0 to 3)): elongated
- binding affinity KD, TrkA ([7]; Homodimer (peptide complex)): N.B.
- phosphorylation of Erk½ [8]: drastically activated phosphorylation; also recorded: a significant difference is present in induction between DMSO and DiTrbL3
- mRNA expression of Arc [9]: significantly increased
- binding affinity KD, TrkC ([10]; Homodimer (peptide complex)): N.B.

Compound: CC(C)C[C@@H]1NC(=O)[C@H](CCCNC(=N)N)NC(=O)[C@H](Cc2ccccc2)NC(=O)[C@H](CCCNC(=N)N)NC(=O)[C@@H]2CCCN2C(=O)[C@H]([C@@H](C)O)NC(=O)[C@H](CCC(N)=O)NC(=O)[C@H](Cc2c[nH]c3ccccc23)NC(=O)[C@H](Cc2ccccc2)NC(=O)[C@H](CCCNC(=N)N)NC(=O)[C@H](Cc2ccc(O)cc2)NC(=O)CSC[C@@H](C(=O)NCC(=O)N[C@@H](CO)C(=O)NCC(=O)N[C@@H](CO)C(=O)NCC(=O)N[C@@H](CO)C(N)=O)NC1=O [TrbL2] ({CH2CO}-YRFWQTPRFRLCGSGSGS-NH2; thioether N-12)
- Kd [11]: 70 nM
- Kd ([7]; Monomer (cyclic peptide), 1 to 1000 nM, read-out: binding affinity KD, TrkA): 100 nM
- binding affinity KD, TrkC ([10]; Monomer (cyclic peptide), 1 to 1000 nM): N.B.

— patent US20230312651A1, “Cyclic Peptide, Peptide Complex, and Drug Composition Containing Said Cyclic Peptide and/or Said Peptide Complex” (The University of Tokyo, priority 2020, published 2023)
